Measurements taken from US20150238487A1, “NOVEL ERGOLINE DERIVATIVES AND USES THEREOF” (MAP Pharmaceuticals, Inc., priority 2012, published 2015).
pEC50, pIC50: −log10 of the molar value.

Columns and labels:
Adenosine A2a = target: T1, Adenosine A2a (Homo sapiens, UniProt P29274); assay: cAMP HTRF assay, Adenosine A2a; format: cell-based; details: agonism; HEK293, cAMP
T1 construct: expressed in transfected cells; host or cells: HEK293
Procedure: (§1) Receptor […] activity assays were performed using 8′OH-2-CF3-dihydroergotamine (8′OH-2-CF3-DHE). Table 1 summarizes the cell lines (CHO-K1/HEK293 transfected with relevant human receptor) and the assays performed to detect any agonist or antagonist activity.
(§2) cAMP HTRF (Gs) studies were conducted to monitor activity for 8′OH-2CF3-dihydroergotamine (8′OH-2CF3-DHE) against the receptors indicated in Table 1 above. Cells expressing the human recombinant receptor of interest were grown in media without antibiotic and detached by gentle flushing with PBS-EDTA (5 mM EDTA), recovered by centrifugation and resuspended in assay buffer (KRH: 5 mM KCl, 1.25 mM MgSO4, 124 mM NaCl, 25 mM HEPES, 13.3 mM glucose, 1.25 mM KH2PO4, 1.45 mM CaCl2, 0.5 g/L BSA). Dose response curves were performed in parallel with the reference compounds. For agonist tests (96-well plates), 12 μL of cells was mixed with 12 μL of the test compound at increasing concentrations and then incubated for 30 minutes at room temperature. Lysis buffer was added and after a 1 hour incubation, cAMP concentrations was determined according to the manufacturer specification with the HTRF kit. […] Lysis buffer was added and after a 1 hour incubation, cAMP concentrations were determined according to the manufacturer specification, with the HTRF kit.

[1] = tested on: NMDA (NR1/NR2A/NR2B/NR2C/NR2D); assay: NMDA receptor channel Fluo-8 calcium FLIPR assay; format: cell-based, human; details: HEK293, Fluo-8 calcium FLIPR, agonist and antagonist assessment
Procedure: Studies for NMDA receptors, NR1, NR2A, NR2B, NR2C, NR2D receptor, were conducted to monitor receptor activity for 8′OH-2CF3-dihydroergotamine (8′OH-2CF3-DHE) using the Fluo-8 calcium kit and a Fluorescence Imaging Plate Reader (FLIPR^TETRA™) instrument. The following channels were evaluated: Cloned NMDA receptor (NR1/NR2A) channel (encoded by the GRIN1 and GRIN2A genes, coexpressed in HEK293 cells; Cloned NMDA receptor (NR1/NR2B) channel (encoded by the GRIN1 and GRIN2B genes, coexpressed in HEK293 cells; Cloned NMDA receptor (NR1/NR2C) channel (encoded by the GRIN1 and GRIN2C genes, coexpressed in HEK293 cells; and Cloned NMDA receptor (NR1/NR2D) channel (encoded by the GRIN1 and GRIN2D genes, transiently coexpressed in HEK293 cells.
For the agonist assessment, the effect of 8′OH-2CF3-DHE was evaluated in the absence of the positive control agonist. The signal, elicited in the presence of the agonist (100 μM Glutamic acid+20 μM Glycine), was set to 100% activation and the signal in the presence of the vehicle control (Mg^2+-free HB-PS) was set to 0% activation.
For the antagonist assessment, NR1/NR2A and NR1/NR2B was activated with the positive control agonist (100 μM Glutamic acid+20 μM Glycine). The ability of 8′OH-2CF3-DHE to inhibit the signal was examined after agonist stimulation and compared to the positive control antagonist (MK-801). […]

Serotonin 5-HT1D = target: T2, Serotonin 5-HT1D (Homo sapiens, UniProt P28221); assay: GTPγ[35S] assay, Serotonin 5-HT1D; format: biochemical; details: agonism, CHO-K1 membranes
T2 construct: expressed in transfected cells; host or cells: CHO-K1 (membrane extracts)
T2 sequence (P28221 whole entry): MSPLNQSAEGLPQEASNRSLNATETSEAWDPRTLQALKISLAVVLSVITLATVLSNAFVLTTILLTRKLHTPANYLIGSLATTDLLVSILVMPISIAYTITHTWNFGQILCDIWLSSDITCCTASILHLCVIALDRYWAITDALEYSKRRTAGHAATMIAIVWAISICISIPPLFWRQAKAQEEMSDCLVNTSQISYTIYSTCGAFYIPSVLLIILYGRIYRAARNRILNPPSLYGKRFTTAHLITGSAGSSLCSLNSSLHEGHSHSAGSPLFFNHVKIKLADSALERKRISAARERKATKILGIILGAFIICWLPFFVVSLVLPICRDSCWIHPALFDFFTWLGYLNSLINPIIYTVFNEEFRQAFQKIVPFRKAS
Procedure: as §1
(§3) GTPγS studies were conducted to monitor agonist activity for 8′OH-2CF3-dihydroergotamine (8′OH-2CF3-DHE) against the receptors indicated in Table 1 above. Reagents used were the following: Assay buffer (20 mM HEPES, pH 7.4; 100 mM NaCl; 10 μg/mL saponin; 30 mM MgCl2); Membranes (recombinant human receptor membrane extracts were thawed on ice and diluted in assay buffer to give 1000 μg/mL ([…]) and kept on ice); GDP (diluted in assay buffer to give 30 μM solution (3 μM final concentration); beads (PVT-WGA (Amersham, RPNQ001), diluted in assay buffer at 25 mg/mL (0.25 mg/10 μL)); GTPγ^35S (Perkin Elmer, NEG030X), diluted in assay buffer to give 0.1 nM (final concentration); and ligand (agonist/antagonist diluted in assay buffer).
(§4) Membranes were mixed with GDP (1:1) and incubated for at least 15 minutes on ice. In parallel GTPγ^35S was mixed with the beads (1:1) just before starting the reaction. […] The plates were then centrifuged for 10 minutes at 2000 rpm and incubated at room temperature for 1 hour and counted for 1 min/well with a Perkin Elmer TopCount reader.

Dopamine D3 = target: T3, Dopamine D3 (Homo sapiens, UniProt P35462); assay: GTPγ[35S] assay, Dopamine D3; format: biochemical; details: agonism, CHO-K1 membranes
T3 construct: expressed in transfected cells; host or cells: CHO-K1 (membrane extracts)
T3 sequence (P35462 whole entry): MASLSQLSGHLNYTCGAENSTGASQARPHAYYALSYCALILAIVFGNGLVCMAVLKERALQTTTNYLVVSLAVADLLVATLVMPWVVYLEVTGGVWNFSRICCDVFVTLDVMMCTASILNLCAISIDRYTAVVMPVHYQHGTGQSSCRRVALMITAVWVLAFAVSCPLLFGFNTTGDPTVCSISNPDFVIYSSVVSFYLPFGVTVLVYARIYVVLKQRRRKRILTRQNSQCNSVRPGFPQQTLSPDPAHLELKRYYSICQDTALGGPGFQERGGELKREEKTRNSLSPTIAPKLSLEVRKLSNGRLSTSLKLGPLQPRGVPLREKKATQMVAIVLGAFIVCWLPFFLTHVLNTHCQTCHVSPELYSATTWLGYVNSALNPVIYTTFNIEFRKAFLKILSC
Procedure: as §1, §3, §4

Adrenergic α2A = target: T4, Adrenergic α2A (Homo sapiens, UniProt P08913); assay: GTPγ[35S] assay, Adrenergic α2A; format: biochemical; details: antagonism, CHO-K1 membranes, read-out: Activity (Antagonism: IC50), Adrenergic a2A
T4 construct: expressed in transfected cells; host or cells: CHO-K1 (membrane extracts)
T4 sequence (P08913 whole entry): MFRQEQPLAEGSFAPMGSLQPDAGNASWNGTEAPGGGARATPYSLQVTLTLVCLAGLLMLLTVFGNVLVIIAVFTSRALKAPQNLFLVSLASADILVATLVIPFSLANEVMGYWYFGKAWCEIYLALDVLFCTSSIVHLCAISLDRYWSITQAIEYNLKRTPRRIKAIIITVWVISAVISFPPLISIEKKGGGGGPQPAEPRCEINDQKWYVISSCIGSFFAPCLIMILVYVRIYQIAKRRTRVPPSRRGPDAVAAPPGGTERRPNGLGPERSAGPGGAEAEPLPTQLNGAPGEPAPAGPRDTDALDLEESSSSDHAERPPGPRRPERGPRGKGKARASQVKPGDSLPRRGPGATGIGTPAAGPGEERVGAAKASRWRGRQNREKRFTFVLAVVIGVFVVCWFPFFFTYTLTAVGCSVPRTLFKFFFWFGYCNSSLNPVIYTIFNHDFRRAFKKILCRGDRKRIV
Procedure: as §1, §3, §4

Calcitonin (AM1/AM2) = assay: cAMP HTRF assay, Calcitonin AM1/AM2; format: cell-based, human; details: CHO-K1, cAMP
Procedure: as §1, §2

T1 sequence (P29274 whole entry): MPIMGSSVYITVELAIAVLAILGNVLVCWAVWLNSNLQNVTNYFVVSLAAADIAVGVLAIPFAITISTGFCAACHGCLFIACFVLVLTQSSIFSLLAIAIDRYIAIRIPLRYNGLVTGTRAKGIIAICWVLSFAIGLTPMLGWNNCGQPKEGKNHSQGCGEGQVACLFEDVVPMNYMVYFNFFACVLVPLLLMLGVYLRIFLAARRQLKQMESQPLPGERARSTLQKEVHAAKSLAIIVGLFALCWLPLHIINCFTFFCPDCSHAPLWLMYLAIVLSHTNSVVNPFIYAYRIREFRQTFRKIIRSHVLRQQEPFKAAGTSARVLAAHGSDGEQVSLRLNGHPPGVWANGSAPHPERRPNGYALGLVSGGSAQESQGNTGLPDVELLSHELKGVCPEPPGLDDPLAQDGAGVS

Question: How did the pEC50 (Adenosine A2a) turn out when `CN1C[C@H](C(=O)N[C@]2(C)O[C@@]3(O)[C@@H]4CC[C@@H](O)N4C(=O)[C@H](Cc4ccccc4)N3C2=O)C[C@@H]2c3cccc4[nH]c(C(F)(F)F)c(c34)C[C@H]21` [8′OH-2-CF3-DHE, 8′-Hydroxy-2-CF3-dihydroergotamine] was run?
Answer: 8.28

Question: What about the Emax (Adenosine A2a) of the same compound?
Answer: 25%

Question: What about the “Activity (Agonism: EC50; Antagonism: IC50), NMDA (NR1/NR2A/NR2B/NR2C/NR2D)” value [1] of the same compound?
Answer: Inactive

Question: And the pEC50 (Serotonin 5-HT1D)?
Answer: 8.28

Question: And the pEC50 (Dopamine D3)?
Answer: 7.49

Question: And the pIC50 (Adrenergic α2A)?
Answer: 6.83

Question: And the “Activity (Agonism: EC50; Antagonism: IC50), Calcitonin (AM1/AM2)” value (Calcitonin (AM1/AM2))?
Answer: Inactive
